Measurements reported in patent US20260234157A1, “COMPOUND AND METHOD FOR TARGETED DEGRADATION OF ANDROGEN RECEPTOR” (Gan & Lee Pharmaceuticals Co., Ltd., priority 2023, published 2026).
Substitutions are numbered along the chain they refer to. Read-outs that look alike come from different tables or passages of the source.

Tests used:
Assay type in all cases: cell-based
AR protein [1] = molecular target: T1, AR protein (Homo sapiens, UniProt P10275, T878A); test: Degradation of AR protein in LNCaP cells (Western blot); conditions: for inhibition at 0.01 µM: read-out: Degradation rates of the AR protein in LNCaP cells, 10 nM (%); for inhibition at 0.1 µM: read-out: Degradation rates of the AR protein in LNCaP cells, 100 nM (%)
T1 construct: degradation activity of the compounds disclosed in the present disclosure on AR protein in LNCaP cells; host or cells: LNCaP FGC
T1 sequence (P10275 1-920 T878A): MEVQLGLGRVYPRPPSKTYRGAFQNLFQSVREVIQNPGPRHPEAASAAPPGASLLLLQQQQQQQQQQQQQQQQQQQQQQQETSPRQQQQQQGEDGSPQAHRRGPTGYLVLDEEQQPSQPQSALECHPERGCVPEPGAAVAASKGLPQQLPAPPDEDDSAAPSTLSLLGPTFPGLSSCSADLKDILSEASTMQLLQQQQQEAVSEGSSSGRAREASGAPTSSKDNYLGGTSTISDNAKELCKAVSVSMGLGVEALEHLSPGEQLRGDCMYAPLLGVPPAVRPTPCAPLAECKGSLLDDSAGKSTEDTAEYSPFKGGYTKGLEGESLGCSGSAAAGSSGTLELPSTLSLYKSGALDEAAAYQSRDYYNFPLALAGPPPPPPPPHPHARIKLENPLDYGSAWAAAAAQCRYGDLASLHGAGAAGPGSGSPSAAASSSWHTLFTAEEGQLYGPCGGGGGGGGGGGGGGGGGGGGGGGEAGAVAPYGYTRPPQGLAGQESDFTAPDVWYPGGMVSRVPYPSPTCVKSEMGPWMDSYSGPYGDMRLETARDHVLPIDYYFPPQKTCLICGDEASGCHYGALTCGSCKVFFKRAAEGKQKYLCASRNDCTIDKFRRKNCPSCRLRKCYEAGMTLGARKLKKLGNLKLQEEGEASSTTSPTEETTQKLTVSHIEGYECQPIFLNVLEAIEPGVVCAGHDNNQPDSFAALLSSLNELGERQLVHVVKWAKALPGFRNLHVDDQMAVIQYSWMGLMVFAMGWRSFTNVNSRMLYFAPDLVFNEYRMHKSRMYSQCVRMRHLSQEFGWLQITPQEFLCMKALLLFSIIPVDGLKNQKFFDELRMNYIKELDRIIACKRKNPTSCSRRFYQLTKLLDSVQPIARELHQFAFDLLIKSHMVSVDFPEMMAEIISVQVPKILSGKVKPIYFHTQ
How it was run: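 Percent AR degradation was derived from GAPDH-normalised Western blot band intensities (infrared detection) in LNCaP lysates.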

AR protein [2] = molecular target: T2, AR protein (Homo sapiens, UniProt P10275); test: Degradation of AR protein in VCaP cells (Western blot); conditions: 8 hours; for inhibition at 0.01 µM: compound at 10 nM, read-out: Degradation rate of the AR protein in VCaP cells, 10 nM (%); for inhibition at 0.1 µM: compound at 100 nM, read-out: Degradation rate of the AR protein in VCaP cells, 100 nM (%)
T2 construct: degradation activity of the compounds disclosed in the present disclosure on AR protein in VCaP cells; host or cells: VCaP
T2 sequence (P10275 1-920): T1 sequence (P10275 1-920 T878A) with A878T
How it was run: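 Western blot readout: AR band grayscale normalised to GAPDH, used to derive degradation rate. Lysates came from VCaP cells exposed to compound for 8 h, with solvent controls run in parallel.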

LNCaP FGC cells = test: Inhibition of proliferation of LNCaP cells (WST-8); conditions: Homo sapiens, LNCaP, 96 h
Protocol: The cells were cultured in a cell culture incubator with 5% CO2 at 37° C. overnight. […] On the sixth day, 96 well plates were taken out, and 20 μL of WST-8 (Beytime, C0040) reagent was added to each well.

VCaP cells = test: Inhibition of proliferation of VCaP cells (WST-8); conditions: Homo sapiens, read-out: IC50 for inhibiting the proliferation of VCaP cells
How it was run: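 Proliferation was read by WST-8 on day nine. Cells were VCaP FGC, seeded at 15000 cells per well in 10% FBS DMEM and kept at 37° C with 5% CO2.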

[3] = LNCaP cells, compound 10 nM, 8 hours, Western blot grayscale, GAPDH internal reference
[4] = LNCaP cells, compound 100 nM, 8 hours, Western blot grayscale, GAPDH internal reference
[5] = LNCaP FGC cells, 96 hours, WST-8 absorbance at 450 nm, read-out: IC50 for inhibiting the proliferation of LNCaP cells
[6] = VCaP cells, 168 hours, WST-8 absorbance at 450 nm

For `N#Cc1ccc(O[C@H]2CC[C@H](NC(=O)c3ccc(N4CC5(CCC(N6CCC7(CCc8cc9c(cc8O7)C(=O)N(C7CCC(=O)NC7=O)C9=O)CC6)CC5)C4)nn3)CC2)cc1Cl` (stereo partly drawn) [Compound 33], the inhibition at 0.01 µM (AR protein [1]; [3]) was 27%, the inhibition at 0.1 µM (AR protein [1]; [4]) was 61% and the inhibition at 0.01 µM (AR protein [2]) was 49%. The inhibition at 0.1 µM (AR protein [2]) was 52%, the IC50 (LNCaP FGC cells; [5]) was 2.21 µM and the IC50 (VCaP cells; [6]) was 1700 nM.

For `N#Cc1ccc(O[C@H]2CC[C@H](NC(=O)c3ccc(N4CC5(CCc6cc7c(cc6O5)C(=O)N(C5CCC(=O)NC5=O)C7=O)C4)nn3)CC2)cc1Cl` (stereo partly drawn) [Compound 6], the inhibition at 0.01 µM (AR protein [1]; [3]) was 58%, the inhibition at 0.1 µM (AR protein [1]; [4]) was 46% and the inhibition at 0.01 µM (AR protein [2]) was 13%. The inhibition at 0.1 µM (AR protein [2]) was 28%, the IC50 (LNCaP FGC cells; [5]) was 5.17 µM and the IC50 (VCaP cells; [6]) was 7500 nM.

In the case of `N#Cc1ccc(O[C@H]2CC[C@H](NC(=O)c3ccc(N4CC5(CCC(N6CCC7(CC6)COc6cc8c(cc6C7)C(=O)N(C6CCC(=O)NC6=O)C8=O)CC5)C4)nn3)CC2)cc1Cl` (stereo partly drawn) [Compound 65], the inhibition at 0.01 µM (AR protein [1]; [3]) is reported as 36%, the inhibition at 0.1 µM (AR protein [1]; [4]) is reported as 75% and the inhibition at 0.01 µM (AR protein [2]) is reported as 50%. The inhibition at 0.1 µM (AR protein [2]) was 71%, the IC50 (LNCaP FGC cells; [5]) was 0.5 µM and the IC50 (VCaP cells; [6]) was 100 nM.

Compound `N#Cc1ccc(O[C@H]2CC[C@H](NC(=O)c3ccc(N4CCC5(CCC(N6CCC7(CC6)COc6cc8c(cc6C7)C(=O)N(C6CCC(=O)NC6=O)C8=O)CC5)CC4)nn3)CC2)cc1Cl` (stereo partly drawn) [Compound 64] has an inhibition at 0.01 µM (AR protein [1]; [3]) of 44%, an inhibition at 0.1 µM (AR protein [1]; [4]) of 72% and an inhibition at 0.01 µM (AR protein [2]) of 62%. For the same compound, the inhibition at 0.1 µM (AR protein [2]) was 73%, the IC50 (LNCaP FGC cells; [5]) was 0.8 µM and the IC50 (VCaP cells; [6]) was 160 nM.

Work on `N#Cc1ccc(O[C@H]2CC[C@H](NC(=O)c3ccc(N4CCC(CN5CC6(CCc7cc8c(cc7O6)CN(C6CCC(=O)NC6=O)C8=O)C5)CC4)nn3)CC2)cc1Cl` (stereo partly drawn) [Compound 7] yielded an inhibition at 0.01 µM (AR protein [1]; [3]) of 86%, an inhibition at 0.1 µM (AR protein [1]; [4]) of 79% and an inhibition at 0.01 µM (AR protein [2]) of 72%. It also gave an inhibition at 0.1 µM (AR protein [2]) of 79%, an IC50 (LNCaP FGC cells; [5]) of 1.57 µM and an IC50 (VCaP cells; [6]) of 3540 nM.

Work on `COc1cc(O[C@H]2C(C)(C)[C@H](NC(=O)c3ccc(N4CCC(CN5CCC6(CCc7cc8c(cc7O6)CN(C6CCC(=O)NC6=O)C8=O)CC5)CC4)cc3)C2(C)C)ccc1C#N` (stereo partly drawn) [Compound 296] yielded an inhibition at 0.01 µM (AR protein [1]; [3]) of 53%, an inhibition at 0.1 µM (AR protein [1]; [4]) of 63% and an inhibition at 0.01 µM (AR protein [2]) of 0%. It also gave an inhibition at 0.1 µM (AR protein [2]) of 59%, an IC50 (LNCaP FGC cells; [5]) of 6.6 µM and an IC50 (VCaP cells; [6]) of 1 nM.

`COc1cc(O[C@H]2C(C)(C)[C@H](NC(=O)c3ccc(N4CCC(C)(CN5CCC6(CC5)COc5c(ccc7c5C(=O)N(C5CCC(=O)NC5=O)C7)C6)CC4)cc3)C2(C)C)ccc1C#N` (stereo partly drawn) [Compound 266] showed an inhibition at 0.01 µM (AR protein [1]; [3]) of 49%, an inhibition at 0.1 µM (AR protein [1]; [4]) of 73% and an inhibition at 0.01 µM (AR protein [2]) of 21%. For the same compound, the inhibition at 0.1 µM (AR protein [2]) was 74%, the IC50 (LNCaP FGC cells; [5]) was 22.1 µM and the IC50 (VCaP cells; [6]) was 3.5 nM.

Compound `CCC1(CN2CCC3(CC2)COc2c3ccc3c2C(=O)N(C2CCC(=O)NC2=O)C3=O)CCN(c2ccc(C(=O)N[C@H]3CC[C@H](Oc4ccc(C#N)c(C(F)(F)F)c4)CC3)nn2)CC1` (stereo partly drawn) [Compound 248] has an inhibition at 0.01 µM (AR protein [1]; [3]) of -53%, an inhibition at 0.1 µM (AR protein [1]; [4]) of -16% and an inhibition at 0.01 µM (AR protein [2]) of 2%. The inhibition at 0.1 µM (AR protein [2]) was 17%, the IC50 (LNCaP FGC cells; [5]) was 5.99 µM and the IC50 (VCaP cells; [6]) was 210 nM.

`N#Cc1ccc(O[C@H]2CC[C@H](NC(=O)c3ccc(N4CC(N5CCC6(CC5)COc5c(ccc7c5C(=O)N(C5CCC(=O)NC5=O)C7)C6)C4)nn3)CC2)cc1Cl` (stereo partly drawn) [Compound 191] gave an inhibition at 0.01 µM (AR protein [1]; LNCaP, 8 h) of -2%, an inhibition at 0.1 µM (AR protein [1]; LNCaP, 8 h) of 4% and an inhibition at 0.01 µM (AR protein [2]) of 31%. For the same compound, the inhibition at 0.1 µM (AR protein [2]) was 68%, the IC50 (LNCaP FGC cells; read-out: IC50 for inhibiting the proliferation of LNCaP cells, LNCaP FGC cells, 96 hours, WST-8 absorbance at 450 nm) was 15.2 µM and the IC50 (VCaP cells; VCaP, 168 h) was greater than 90000 nM.

Compound `CCC1(CN2CCC3(CC2)COc2c3ccc3c2C(=O)N(C2CCC(=O)NC2=O)C3=O)CCN(c2ccc(C(=O)N[C@H]3CC[C@H](Oc4ccc(C#N)c(Cl)c4)CC3)nn2)CC1` (stereo partly drawn) [Compound 249] has an inhibition at 0.01 µM (AR protein [1]; [3]) of -5%, an inhibition at 0.1 µM (AR protein [1]; [4]) of 51% and an inhibition at 0.01 µM (AR protein [2]) of -21%. The inhibition at 0.1 µM (AR protein [2]) was 56%, the IC50 (LNCaP FGC cells; [5]) was 12.1 µM and the IC50 (VCaP cells; [6]) was 220 nM.

`COc1cc(O[C@H]2C(C)(C)[C@H](NC(=O)c3ccc(N4CCC(C)(CN5CC6(CCc7cc8c(cc7O6)C(=O)N(C6CCC(=O)NC6=O)C8)C5)CC4)cc3)C2(C)C)ccc1C#N` (stereo partly drawn) [Compound 265] was tested, and the inhibition at 0.01 µM (AR protein [1]; [3]) was 66%, the inhibition at 0.1 µM (AR protein [1]; [4]) was 61% and the inhibition at 0.01 µM (AR protein [2]) was 34%. The inhibition at 0.1 µM (AR protein [2]) was 78%, the IC50 (LNCaP FGC cells; [5]) was 44.4 µM and the IC50 (VCaP cells; [6]) was 1.5 nM.
